Results reported in patent US20230172894A1, “COMBINATION TREATMENT FOR FUMARATE-RELATED DISEASES” (IMCYSE SA, priority 2020, published 2023).
Where a name gives a salt, the structure may show the parent alone. Read-outs that look alike come from different tables or passages of the source.

What was measured:
[1] = system: experimental auto-immune encephalomyelitis (EAE) development in mice; details: Example 1; for AUC (area under the curve) of EAE scores: day 7 to 28 scoring; for AUC (area under the curve) of EAE scores / end score (clinical EAE score 0-5) / MMS (mean maximal score): vs negative control; for AUC (area under the curve) of EAE scores / disease onset / end score (clinical EAE score 0-5) / MMS (mean maximal score): combination also vs each single treatment; for disease onset / end score (clinical EAE score 0-5): peptide 100 μg/Alum s.c. days −21, −14, −7, BG-12 100 mg/kg p.o. BID days 0 to 27; for disease onset: vs negative control (Saline/Vehicle)
Text: Example 1: Effect of the prophylactic administration of an immunogenic peptide comprising a MOG35-55 MHCII T cell epitope and a HCPYC oxidoreductase motif in combination with dimethyl fumarate (BG-12, […]™) on experimental auto-immune encephalomyelitis (EAE) development in mice.
The study used a total of 64 female C57BL/6 mice (Taconic Biosciences, 10 weeks old on Day 0). Mice were acclimated for 8 days prior to the first injection. Mice were assigned to groups in a balanced manner to achieve similar average weight across the groups at the start of the study.
Treatment 1 was administered once on each of the days indicated in Table 1, s.c., at a volume of 0.05 mL/site, each mouse receiving injection at two sites, for a total of 0.1 mL/mouse/dosing day, corresponding to 100 μg of peptide.
BG-12 was dosed at 100 mg/kg. All dosing was done at the same time (+/−1 hour) each dosing day. For the BID groups there were no less than 10 and no more than 14 hours between doses.
For Treatment 1, 0.9% NaCl solution was prepared at each dosing day. […] (SEQ ID NO: 185), comprising an oxidoreductase motif HCPYC (SEQ ID NO: 71), a linker GW, a murine Myelin Oligodendrocyte Glycoprotein (MOG35-55) MHCII T cell epitope […] (SEQ ID NO: 169) and a flanking sequence HLYR (SEQ ID NO: 186) (Smart Bioscience) was solubilized immediately before use. Lyophilized IMCY-0189 was thawed at room temperature for 10 minutes, resuspended in Na Acetate buffer 50 mM pH 5.4 and incubated at room temperature for 5 minutes. Reconstituted peptide was then mixed with Imject™ Alum Adjuvant before injection.
For Treatment 2, vehicle was 0.5% HPMC, 0.2% Tween 20, and 50 mM citrate buffer at pH 4. BG-12 (or […]™, from Santa Cruz Biotechnology, catalog number sc-239774) was prepared once a week. At each preparation the required amount of BG-12 was weighed out into a mortar and triturated with a pestle. Vehicle was then added in small increments and mixed until the final volume was reached. The material was then vortexed and sonicated in a water bath until a homogeneous suspension was obtained. Formulated BG-12 was stored at 4° C., stirring continuously.
EAE was induced in all mice as follows: • Day 0, Hour 0—Immunization with a peptide corresponding to the amino acids 35-55 of MOG (MOG35-55)/CFA • Day 0, Hour 2—Injection of pertussis toxin • Day 1, Hour 0-2nd injection of pertussis toxin (24 hours after initial immunization).
Mice were injected subcutaneously at two sites in the back with the emulsion component (containing MOG35-55) of Hooke Kit™ MOG35-55/CFA Emulsion PTX, catalog number EK-2110 (lot #127, Hooke Laboratories, Lawrence Mass.). One site of injection was in the area of upper back, approximately 1 cm caudal of the neck line. The second site was in the area of lower back, approximately 2 cm cranial of the base of the tail. The injection volume was 0.1 mL at each site. Each mouse received 200 μg of MOG35-55.
Within 2 hours of the injection of emulsion, and then again 24 hours after the injection of emulsion, the pertussis toxin component of the kit was administered intraperitoneally. The pertussis toxin (lot #1008, Hooke Laboratories) was administered at 100 ng/dose for both injections and the volume of each injection was 0.1 mL.
Animals were scored daily starting from Day 7 to the end of the study. Scoring was performed blind, by a person unaware of both treatment and of previous scores for each mouse. In-between scores were assigned when the clinical signs fell between two above defined scores.
AUC, MMS, inflammation and demyelination, and NF-L levels quantification data were analyzed by performing Ordinary one-way ANOVA. Adjustment for multiplicity was performed using Holm-Sidak's method. Significant differences are referred as follows: *p<0.05, **p<0.01, ***p<0.001, ****p<0.0001.
(§1) EAE development was evaluated by comparing clinical EAE readouts for all groups to the negative control (Saline/Vehicle) group.

[2] = system: experimental auto-immune encephalomyelitis (EAE) development in mice; details: Example 2; for mice died in group: 16 mice per group; for disease onset: peptide 30 μg/Alum s.c. days 4, 9, 14, 19, BG-12 100 mg/kg p.o. BID days 0 to 27; for disease onset / AUC (area under the curve) of EAE scores / MMS (mean maximal score) / end score (clinical EAE score 0-5): single agents vs negative control, combinations vs peptides only or BG-12 only
Text: Example 2: Effect of the therapeutic administration of an immunogenic peptide comprising a MOG35-55 MHCII T cell epitope linked or not to an HCPYC oxidoreductase motif in combination with dimethyl fumarate (BG-12, […]™) on experimental auto-immune encephalomyelitis (EAE) development in mice.
The study used a total of 96 female C57BL/6 mice (Taconic Biosciences, 10 weeks old on Day 0). Mice were acclimated for 14 days prior to the first injection. Mice were assigned to groups in a balanced manner to achieve similar average weight across the groups at the start of the study.
Treatment 1 was administered once on each of the days indicated in Table 3, s.c., at a volume of 0.05 mL/site, each mouse receiving injection at two sites, for a total of 0.1 mL/mouse/dosing day. IMCY-0189 or MOG35-55 peptide total dose was 30 μg per administration.
BG-12 was dosed at 100 mg/kg.
All dosing were done at the same time (+/−1 hour) each dosing day. For the BID groups there were no less than 10 and no more than 14 hours between doses.
Lyophilized mouse MOG35-55 peptide with the sequence […] (SEQ ID NO:205), comprising the mouse Myelin Oligodendrocyte Glycoprotein (MOG35-55) MHCII T cell epitope […] (SEQ ID NO:169), was solubilized immediately before use. Lyophilized MOG35-55 peptide was thawed at room temperature for 10 minutes, resuspended in Na Acetate buffer 50 mM NaCl 0.9% pH 5.4 and incubated at room temperature for 10 minutes. Reconstituted MOG35-55 peptide was then mixed with Imject™ Alum Adjuvant before injection. Note that the positions 35 to 55 refer to the mature protein, i.e. after cleavage of the signal peptide (AA 1-29), defined by SEQ ID NO: 208. In the full-length amino acid sequence of MOG (SEQ ID NO: 184), said peptide would be at positions 64-84.
Lyophilized IMCY-0189 was thawed at room temperature for 10 minutes, resuspended in Na Acetate buffer 50 mM NaCl 0.9% pH 5.4 and incubated at room temperature for 10 minutes. Reconstituted peptide was then mixed with Imject™ Alum Adjuvant before injection.
For Treatment 2, vehicle was 0.5% HPMC, 0.2% Tween 20, and 50 mM citrate buffer at pH 4. BG-12 (Santa Cruz Biotechnology, sc-239774) and was prepared at least every 2 weeks. At each preparation the required amount of BG-12 was weighed out into a mortar and triturated with a pestle. Vehicle was then added in small increments and mixed until the final volume was reached. The material was then vortexed and sonicated in a water bath until a homogeneous suspension was obtained. Formulated BG-12 was stored at 4° C., stirring continuously.
EAE induction, scoring and statistical analysis were performed as described in example 1.
as §1

Row | Compound | mice died in group ([1]; 16 mice per group) | AUC (area under the curve) of EAE scores [1] | disease onset [1] | end score (clinical EAE score 0-5) [1] | MMS (mean maximal score) [1] | mice died in group [2] | disease onset [2] | AUC (area under the curve) of EAE scores [2] | MMS (mean maximal score) [2] | end score (clinical EAE score 0-5) [2] | mice died due to severe EAE ([1]; 16 mice per group)
1 | COC(=O)/C=C/C(=O)OC [BG-12, dimethyl fumarate, reference compound] | No mice died | statistically significant reduced | postponed disease onset | reduced end score | statistically significant reduced | No mice died | postponed disease onset | statistically significant reduced | statistically significant reduced | reduced end score | 
2 | HCPYCGWYRSPFSRVVHLYR [IMCY-0189] | 2 mice | statistically significant reduced | postponed disease onset | reduced end score | statistically significant reduced | 1 mice | postponed disease onset | statistically significant reduced | statistically significant reduced | reduced end score | 1 mouse
